Measurements reported in the supplement of paper PMC11061612.

Key:
Test in all cases: Bliss excess, mean over the matrix (fraction); higher = more synergy
[1] = test system: NCI-N87 (Gastric Carcinoma)
In short: (§1)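 Cell lines in DMEM/F12 or RPMI with 10% FBS were plated in 1536-well plates, held 24 hours at 37°C, 5% CO2, then given two-drug dose matrices for 72 hours (DMSO typically 0.2%). Viability was read by CellTiter-Glo 2.0 luminescence and scaled as inhibition from 0 (vehicle wells) to 1 (blank wells). Combination Emax is the second-highest inhibition in the matrix; Bliss excess is observed combination effect minus expected EA + EB − EA·EB, EA and EB being single-agent effects.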

[2] = test system: NCI-H2405 (Lung Adenocarcinoma)
In short: as §1

[3] = test system: SNU-C1 (Colorectal Carcinoma)
In short: as §1

[4] = test system: HC-1 (Other Blood Carcinomas)
In short: as §1

[5] = test system: BV-173 (Chronic Myelogenous Leukemia)
In short: as §1

[6] = test system: KU-19-19 (Bladder Carcinoma)
In short: as §1

[7] = test system: IMR-5 (Neuroblastoma)
In short: as §1

[8] = test system: TGBC11TKB (Gastric Carcinoma)
In short: as §1

[9] = test system: NCI-H322M (Lung Adenocarcinoma)
In short: as §1

[10] = test system: SCC-9 (Oral Cavity Carcinoma)
In short: as §1

[11] = test system: KYSE-150 (Esophageal Squamous Cell Carcinoma)
In short: as §1

[12] = test system: VMRC-LCD (Lung Adenocarcinoma)
In short: as §1

[13] = test system: NCI-H1573 (Lung Adenocarcinoma)
In short: as §1

[14] = test system: A704 (Kidney Carcinoma)
In short: as §1

[15] = test system: KINGS-1 (Low Grade Glioma)
In short: as §1

[16] = test system: U-87-MG (Glioblastoma)
In short: as §1

[17] = test system: NH-12 (Neuroblastoma)
In short: as §1

[18] = test system: GI-1 (Glioblastoma)
In short: as §1

[19] = test system: RPMI-7951 (Melanoma)
In short: as §1

[20] = test system: MFE-319 (Endometrial Carcinoma)
In short: as §1

| SMILES | Bliss excess [1] | Bliss excess [2] | Bliss excess [3] | Bliss excess [4] | Bliss excess [5] | Bliss excess [6] | Bliss excess [7] | Bliss excess [8] | Bliss excess [9] | Bliss excess [10] | Bliss excess [11] | Bliss excess [12] | Bliss excess [13] | Bliss excess [14] | Bliss excess [15] | Bliss excess [16] | Bliss excess [17] | Bliss excess [18] | Bliss excess [19] | Bliss excess [20] |
| --- | --- | --- | --- | --- | --- | --- | --- | --- | --- | --- | --- | --- | --- | --- | --- | --- | --- | --- | --- | --- |
| CC1(C)CCC(CN2CCN(c3ccc(C(=O)NS(=O)(=O)c4ccc(NCC5CCOCC5)c([N+](=O)[O-])c4)c(Oc4cnc5[nH]ccc5c4)c3)CC2)=C(c2ccc(Cl)cc2)C1 [Venetoclax] + C[C@@H](Nc1cc(F)cc(F)c1)c1cc(C(=O)N(C)C)cc2c(=O)cc(N3CCOCC3)oc12 [AZD8186] (first compound max 1 µM, 7x7, partner max 3 µM) | -0.111 | -0.0396 | -0.0749 | 0.0693 | -0.0477 | -0.0402 | 0.0793 | -0.0067 | -0.0526 | -0.0222 | -0.0281 | -0.0457 | -0.0247 | -0.0162 | 0.0081 | -0.117 | 0.124 | -0.0091 | -0.0344 | -0.0419 |
| CC1(C)CCC(CN2CCN(c3ccc(C(=O)NS(=O)(=O)c4ccc(NCC5CCOCC5)c([N+](=O)[O-])c4)c(Oc4cnc5[nH]ccc5c4)c3)CC2)=C(c2ccc(Cl)cc2)C1 [Venetoclax] + COc1cc(Nc2ncc3c(n2)-c2ccc(Cl)cc2C(c2c(F)cccc2OC)=NC3)ccc1C(=O)O [Alisertib] (first compound max 1 µM, 7x7, partner max 10 µM) | -0.0675 | -0.0251 | -0.0323 | 0.18 | -0.018 | -0.0086 | 0.0402 | 0.0709 | -0.0612 | -0.0571 | -0.0364 | -0.043 | -0.0266 | -0.0913 | -0.0049 | -0.087 | 0.0844 | 0.0787 | 0.0107 | -0.0256 |
| COc1nnc2ccc(N3CCC(c4ccc(OCCN5CCN(C)C(=O)[C@H]5C)cc4)CC3)nn12 [AZD5153] + Cn1cnc2c(F)c(Nc3ccc(Br)cc3Cl)c(C(=O)NOCCO)cc21 [Selumetinib] (first compound max 1 µM, 7x7, partner max 10 µM) | -0.0399 | -0.0297 | -0.0447 | -0.105 | -0.0503 | -0.0007 | -0.0047 | 0.0671 | 0.0052 | 0.042 | 0.0195 | -0.0401 | 0.0491 | -0.0077 | -0.029 | -0.0591 | -0.0476 | 0.0286 | 0.02 | -0.0265 |
| CC1(C)CCC(CN2CCN(c3ccc(C(=O)NS(=O)(=O)c4ccc(NCC5CCOCC5)c([N+](=O)[O-])c4)c(Oc4cnc5[nH]ccc5c4)c3)CC2)=C(c2ccc(Cl)cc2)C1 [Venetoclax] + Cn1cnc2c(F)c(Nc3ccc(Br)cc3Cl)c(C(=O)NOCCO)cc21 [Selumetinib] (first compound max 1 µM, 7x7, partner max 3 µM) | -0.065 | -0.0618 | -0.053 | 0.0509 | -0.0183 | 0.0087 | 0.0009 | 0.0049 | -0.0124 | -0.0242 | -0.0102 | -0.0386 | -0.0431 | -0.0299 | -0.0469 | -0.0889 | 0.0918 | -0.0095 | -0.049 | -0.0034 |
| Cn1cnc2c(F)c(Nc3ccc(Br)cc3Cl)c(C(=O)NOCCO)cc21 [Selumetinib] + CCN(CCO)CCCOc1ccc2c(Nc3cc(CC(=O)Nc4cccc(F)c4)[nH]n3)ncnc2c1 [AZD2811] (first compound max 10 µM, 7x7, partner max 1 µM) | -0.0173 | -0.0127 | -0.0494 | 0.0547 | -0.0225 | 0.0258 | -0.0062 | 0.0127 | -0.0069 | 0.0722 | 0.0295 | -0.0162 | -0.0318 | -0.058 | -0.0447 | -0.0443 | -0.0485 | -0.104 | 0.0191 | -0.0736 |
| COc1nnc2ccc(N3CCC(c4ccc(OCCN5CCN(C)C(=O)[C@H]5C)cc4)CC3)nn12 [AZD5153] + CC1(C)CCC(CN2CCN(c3ccc(C(=O)NS(=O)(=O)c4ccc(NCC5CCOCC5)c([N+](=O)[O-])c4)c(Oc4cnc5[nH]ccc5c4)c3)CC2)=C(c2ccc(Cl)cc2)C1 [Venetoclax] (first compound max 1 µM, 7x7, partner max 1 µM) | -0.0978 | -0.0484 | -0.061 | 0.0089 | -0.0706 | -0.0567 | -0.0119 | -0.0783 | -0.076 | -0.0478 | 0.0061 | -0.063 | -0.0885 | -0.0016 | -0.0288 | -0.0343 | -0.0333 | 0.0247 | -0.0292 | -0.124 |
| CC(=O)Nc1cccc(-n2c(=O)n(C3CC3)c(=O)c3c(Nc4ccc(I)cc4F)n(C)c(=O)c(C)c32)c1 [Trametinib] + Cc1nc(-c2cn3c(n2)-c2ccc(-c4cnn(C(C)(C)C(N)=O)c4)cc2OCC3)n(C(C)C)n1 [Taselisib] (first compound max 1 µM, 7x7, partner max 10 µM) | 0.067 | 0.107 | -0.0022 | 0.12 | 0.0965 | 0.0597 | 0.0467 | 0.329 | 0.0404 | 0.192 | 0.123 | -0.0267 | 0.088 | -0.0243 | 0.151 | 0.0848 | 0.011 | 0.0885 | 0.0161 | 0.0681 |
| CC(=O)c1c(C)c2cnc(Nc3ccc(N4CCNCC4)cn3)nc2n(C2CCCC2)c1=O [Palbociclib] + Cn1cnc2c(F)c(Nc3ccc(Br)cc3Cl)c(C(=O)NOCCO)cc21 [Selumetinib] (first compound max 10 µM, 7x7, partner max 10 µM) | 0.0117 | -0.016 | 0.0288 | -0.0354 | -0.0657 | -0.0054 | 0.0682 | 0.0327 | 0.0515 | 0.0811 | 0.127 | -0.0448 | 0.0017 | -0.0874 | -0.0272 | -0.0929 | 0.0409 | -0.0734 | 0.0492 | 0.0042 |
| Cc1c2c(nn1C)CSCc1cc(n(C)n1)CSc1cc(c3ccccc3c1)OCCCc1c(C(=O)O)n(C)c3c-2c(Cl)ccc13 [AZD5991] + Cn1cnc2c(F)c(Nc3ccc(Br)cc3Cl)c(C(=O)NOCCO)cc21 [Selumetinib] (first compound max 1 µM, 7x7, partner max 3 µM) | 0.0633 | 0.0595 | 0.0034 | 0.0827 | 0.0265 | 0.0759 | -0.0154 | 0.0592 | 0.0308 | 0.0245 | 0.0402 | -0.0229 | -0.0059 | -0.106 | -0.0147 | -0.0073 | 0.0026 | -0.0491 | -0.0072 | -0.0233 |
| CN(CCO)CC[C@H](CSc1ccccc1)Nc1ccc(S(=O)(=O)NC(=O)c2ccc(N3CCC([C@@H](O)c4ccccc4-c4ccc(Cl)cc4)CC3)cc2)cc1S(=O)(=O)C(F)(F)F [AZD4320] + CN(C)CCCOc1ccc(-c2ccc3ncc4c(c3c2)n(C2CCOCC2)c(=O)n4C)cn1 [AZD0156] (first compound max 1 µM, 7x7, partner max 1 µM) | -0.0474 | -0.0378 | -0.0283 | -0.0813 | -0.0681 | -0.0364 | 0.0284 | -0.0242 | -0.0432 | -0.0423 | -0.0392 | -0.0542 | -0.0255 | -0.0411 | 0.007 | -0.0331 | -0.0565 | 0.0066 | 0.0046 | -0.0009 |
| NC1(C(=O)N[C@@H](CCO)c2ccc(Cl)cc2)CCN(c2ncnc3[nH]ccc23)CC1 [Capivasertib] + CC(=O)c1c(C)c2cnc(Nc3ccc(N4CCNCC4)cn3)nc2n(C2CCCC2)c1=O [Palbociclib] (first compound max 10 µM, 7x7, partner max 10 µM) | -0.0066 | -0.0405 | -0.0506 | -0.0705 | -0.0452 | 0.0041 | 0.0514 | -0.0358 | 0.0072 | 0.0004 | 0.0446 | -0.0153 | -0.0204 | -0.0413 | 0.0102 | -0.0097 | 0.0124 | 0.0117 | 0.0186 | -0.0339 |
| COc1cccc(OCCCN)c1-c1cc(Nc2cnc(C#N)cn2)n[nH]1 [Prexasertib] + CCc1c2c(nc3ccc(O)cc13)-c1cc3c(c(=O)n1C2)COC(=O)[C@]3(O)CC [SN-38] (first compound max 1 µM, 7x7, partner max 0.3 µM) | -0.0787 | -0.058 | -0.0179 | -0.0005 | -0.0594 | 0.0024 | -0.011 | 0.0252 | -0.0161 | 0.0405 | 0.135 | 0.023 | 0.0357 | -0.0496 | 0.0121 | -0.092 | -0.078 | 0.0188 | -0.0265 | 0.0161 |
| C[C@@H](c1ccc2nccn2c1)n1nnc2ncc(-c3cnn(C)c3)nc21 [Savolitinib] + Cc1c2c(nn1C)CSCc1cc(n(C)n1)CSc1cc(c3ccccc3c1)OCCCc1c(C(=O)O)n(C)c3c-2c(Cl)ccc13 [AZD5991] (first compound max 1 µM, 7x7, partner max 1 µM) | -0.0513 | -0.0547 | -0.0558 | -0.0199 | -0.0404 | -0.0494 | 0.0026 | -0.0197 | -0.0638 | -0.0281 | -0.0428 | -0.0198 | -0.036 | -0.0508 | 0.0058 | -0.0347 | -0.0375 | 0.0227 | -0.0199 | -0.0751 |
| COc1nnc2ccc(N3CCC(c4ccc(OCCN5CCN(C)C(=O)[C@H]5C)cc4)CC3)nn12 [AZD5153] + C=CCn1c(=O)c2cnc(Nc3ccc(N4CCN(C)CC4)cc3)nc2n1-c1cccc(C(C)(C)O)n1 [AZD1775] (first compound max 1 µM, partner max 1 µM) | -0.0415 | 0.0195 | -0.0563 | -0.078 | -0.0256 | -0.121 | -0.0213 | -0.0699 | -0.106 | 0.0175 | -0.049 | -0.0025 | -0.0197 | -0.0375 | -0.0123 | -0.119 | -0.123 | -0.0143 | -0.0223 | -0.13 |
